Calls of active or inactive are those of the source.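 The calls were made as follows: active = compounds giving half or more protection of infected cells from virus-caused growth loss, again on retest; inactive = the rest.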 *1 amine or outer side, *2 acyl side, *3 side chain or, on linkers, in order; H or OH if unused. Where a SMILES comes first, the peptide text is derived from it. [ ]: non-standard residue; d: D form. The star is where a group is joined. X1 = O=C(C1=CN(Cc2ccccc2)C=CC1N[*:1])[*:2]; Boc = CC(C)(C)OC(=O)*

The subject of this test is CEM cells HIV-1 protection, formazan growth assay. As to the kind of experiment: NCI AIDS Antiviral Assay. The note with it: for IC50: measured here: growth of uninfected CEM cells. Summed up: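 Category rules: moderately active means at least 50% protection on retest, and confirmed active means 100% protection reproducibly. The underlying data came from a formazan growth assay in HIV-1-infected CEM cells.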

Take `CC(C)=CC(=O)N1CCN(C(=O)C=C(C)C)CC1`: the EC50 is above 501 µM and the IC50 was above 501 µM.

Regarding `COC(=O)c1cc(C(=CCN[C@@H]2CC[C@@]3(C)[C@@H](CC[C@@H]4[C@@H]3CC[C@]3(C)[C@@H]([C@H](C)CCCC(C)C)CC[C@@H]43)C2)c2cc(Cl)c(OC)c(C(=O)OC)c2)cc(Cl)c1OC`, the EC50 was above 100 µM and the IC50 is above 100 µM.

For `CN1CCN(/C(N)=C(\C#N)C(=O)Nc2ccccc2)CC1`, the EC50 is above 200 µM and the IC50 was above 200 µM.

`CCOP(=O)(OCC)OC(C#N)c1ccc(-c2ccccc2)cc1` (stereo not given): the EC50 was above 89.1 µM and the IC50 was determined as 45.7 µM.

Consider `O=C(OC[C@H]1C[C@H]2C(=O)CCC[C@H]2O1)c1ccccc1`, for which the EC50 is above 200 µM and the IC50 is above 200 µM.

Turning to `COc1cc(-c2cc(=O)c3c(C)cc(O)cc3o2)cc(OC)c1OC`, the EC50 was 112 µM and the IC50 was above 200 µM.

In the case of `CCOC(=O)/C(=C\c1ccc(C)cc1)[Se]c1ccccc1`, the EC50 is above 5.75 µM and the IC50 is above 5.75 µM.

In the case of `NC(=O)N/N=C1\CCCc2ccccc21`, the EC50 is above 178 µM and the IC50 is above 178 µM.

Consider `COCN1COCN=C1NC#N`, for which the EC50 is above 525 µM and the IC50 is above 525 µM.

With `COc1cc(C(=O)NO)ccc1O`, the EC50 was above 8510 µM and the half-inhibitory concentration (IC50) was 447 µM.

`Cc1cc(C)c2c(=N)c3ccccc3n(CCCCCCCCn3c4ccccc4c(=N)c4c(C)cc(C)nc43)c2n1`: the EC50 is above 2 µM and the IC50 amounted to 0.251 µM.

Regarding `COc1ccc(C[C@]23CCC(=O)N2CCc2cc(OC)c(O)cc23)cc1O`, the outcome was inactive.

`C/C(N=NS(=O)(=O)c1ccccc1)=C1\C=CC=CN1O`: the result was inactive.

Regarding `COC1(OC)CC(CO)(COc2cc(Cl)nc(N)n2)C1`, the EC50 was above 200 µM and the IC50 is above 200 µM.

For `COc1ccc(OC)c2cc(C3(C)SCCCS3)ccc12`, the outcome was inactive.

Turning to `COc1ccccc1NC(=O)C(CC(C(=O)Nc1ccccc1OC)/C(C)=N/NC(=O)c1ccccc1O)/C(C)=N/NC(=O)c1ccccc1O` (stereo not given), the EC50 was above 51.3 µM and the IC50 is above 51.3 µM.

Take `O=C(c1c(F)c(F)c(F)c(F)c1F)N1CCN(C(=O)c2c(F)c(F)c(F)c(F)c2F)C1=S`: the EC50 was above 200 µM and the IC50 worked out at 1.26 µM.

With `Cc1cn(C2C(CO)C(CO)C2(F)F)c(=O)[nH]c1=O` (stereo not given), the EC50 is above 200 µM and the IC50 was above 200 µM.

Consider `O=[N+]([O-])c1cc(Br)cc2c1[nH]c1nc3ccc(C(F)(F)F)cc3nc12`, for which the EC50 was above 45.7 µM and the IC50 was determined as 8.32 µM.

Consider `N#CCCN(c1ccc(C=Nc2ccc(C(=O)O)cc2)cc1)S(=O)(=O)c1ccccc1`, for which the EC50 was above 302 µM and the IC50 is above 302 µM.

Take `Cc1cn(C2CC(N=[N+]=[N-])C(COC(=O)C3OC(C)(C)O[C@@]34CC[C@H]3[C@@H]5CCC6=CC(=O)C=C[C@]6(C)[C@H]5[C@@H](O)C[C@@]34C)O2)c(=O)[nH]c1=O` (stereo not given in full): the EC50 is 0.0589 µM and the IC50 was 11.5 µM.

`CC1(C)C[C@H]2[C@H](O)C(CO)=C3C(=O)[C@@H](O)[C@]3(C)[C@H]2C1`: the result was inactive.

With `N#CS/C(C(Cl)=C(Cl)Cl)=C(/Cl)[N+](=O)[O-]`, the EC50 is above 200 µM and the IC50 worked out at 8.32 µM.

On to `Cc1c([O-])c([O-])c(-c2c([O-])c([O-])c(C)c3c2OCO3)c2c1OCO2.[C-]#[O+].[C-]#[O+].[C-]#[O+].[C-]#[O+].[C-]#[O+].[C-]#[O+].[C-]#[O+].[C-]#[O+].[Re].[Re]`, for which the EC50 was above 174 µM and the IC50 is 93.3 µM.

Turning to `CCN1CC2(C)CC[C@@H](OC)C34[C@@H]2[C@H](OC(C)=O)C2(OCO[C@@]25C[C@H](OC)C2C[C@]3(O)[C@@H]5[C@H]2O)[C@H]14`, the outcome was inactive.

`Clc1ccc(Nc2nnc(CCCCCCCCc3nnc(Nc4ccc(Cl)cc4)o3)o2)cc1`: the EC50 was above 200 µM and the IC50 amounted to 45.7 µM.

As to `CCOC(=O)c1[nH]n(-c2ccccc2)c(=O)c1/C=N/C(=S)NCCc1ccc(OC)c(OC)c1`, the EC50 was above 200 µM and the IC50 amounted to 51.3 µM.

For the molecule `COC1=NN2C(OC)(c3ccccc3)c3c(-c4ccccc4)sc(-c4ccccc4)c3C2(c2ccccc2)S1` (stereo not given), the outcome was inactive.

Take `Nc1nc(N)c(CCCCc2ccccc2)c(C=O)n1`: the result was inactive.

Consider `C[C@H]1CC(=O)C[C@@H]2CC[C@@H]3[C@H](CC[C@]4(C)C(OC(=O)c5cccc6c(=O)c7ccccc7[nH]c56)CC[C@@H]34)[C@]21C` (stereo not given in full), for which the EC50 is above 200 µM and the IC50 is 22.4 µM.

As to `CC(C)(C)OC(=O)NC(Cc1ccccc1)C(=O)N1CCCC1C(N)=O` (stereo not drawn) (Boc-Phe-Pro-NH2; configuration not given here), the EC50 was above 200 µM and the concentration for half-maximal inhibition (IC50) was above 200 µM.

For the molecule `O=C(O)/C(=C/c1ccccc1[N+](=O)[O-])c1cccs1`, the EC50 is above 912 µM and the IC50 came out at 457 µM.

For `COc1ccc(C[C@H](N)C(=O)N2C[C@H](CO)C[C@H](n3ccc(=O)[nH]c3=O)C2)cc1`, the EC50 was above 617 µM and the IC50 is above 617 µM.

Take `N#CC(C#N)=Cn1ccc(=O)[nH]c1=S`: the EC50 is above 200 µM and the IC50 is above 200 µM.

`Nc1ccccc1S(=O)c1ccccc1` (stereo not given): the EC50 was above 275 µM and the IC50 was above 275 µM.

Take `OC1(c2ccc(-c3ccccc3)cc2)c2ccccc2C2=NCCN21` (stereo not given): the EC50 was above 200 µM and the IC50 was above 100 µM.

On to `COC1(OC)CC2C=C(S(=O)(=O)c3ccccc3)C1N(Cc1ccccc1)C2=O` (stereo not given), for which the outcome was inactive.

`CC1=Cc2cccc(C)c2C(=O)C1=O`: the EC50 is above 38.9 µM and the IC50 is 6.46 µM.

For the molecule `Cc1ccc([S@](=O)c2occc2C=O)cc1`, the EC50 is above 20 µM and the IC50 amounted to 1.82 µM.

For `C[C@]12CC[C@H]3[C@@H](CC=C4C[C@@H](O)CC[C@@]43C)[C@@H]1CC[C@@H]2N(CCO)CCO`, the EC50 is above 200 µM and the IC50 turned out to be 60.3 µM.

Take `CC1(C)OC2C(=O)O[C@H](CO)C2O1` (stereo not given in full): the EC50 was above 200 µM and the IC50 was above 200 µM.

As for `[N-]=[N+]=NC1=C(c2ccccn2)C(=O)c2cccc3cccc1c23`, the EC50 is above 200 µM and the IC50 was determined as 4.17 µM.

As for `CS/C(=N\N=C(/C)c1ccccn1)N1CCN(c2ccccn2)CC1`, the EC50 is above 123 µM and the half-maximal inhibitory concentration (IC50) is 17.4 µM.

Regarding `O=C([O-])C1([n+]2c(-c3ccccc3)cc(-c3ccccc3)cc2-c2ccccc2)CC1`, the EC50 was above 200 µM and the IC50 stood at 81.3 µM.

On to `N#CN=C1N=S(=O)(c2ccccc2)c2ccccc21` (stereo not given), for which the EC50 is above 186 µM and the 50% inhibitory concentration (IC50) worked out at 162 µM.

As for `Cc1cc(C(F)(F)F)cc(-n2nc(NS(=O)(=O)c3cc(C)c(Cl)cc3S)nc2N)n1`, the EC50 was above 200 µM and the IC50 worked out at 166 µM.

Regarding `N#Cc1ccccc1NC(=O)C(=O)C(C(=O)c1ccccc1-c1ccccc1)C1OC(=O)c2ccccc21` (stereo not given), the EC50 is above 52.5 µM and the IC50 was 26.3 µM.

As to `N#CNc1nc(N)c(-c2ccc(Cl)cc2)c(C(=O)Nc2nccs2)n1`, the EC50 was above 676 µM and the IC50 was above 676 µM.

Regarding `CCN1CCC(O)(c2ccc(Cl)cc2)C(C(=O)c2ccc(Cl)cc2)C1` (stereo not given), the result was inactive.

For `[N-]=[N+]=NC1CC(n2cc(COCC(F)(F)F)c(=O)[nH]c2=O)OC1CO` (stereo not given), the EC50 worked out at 5.75 µM and the IC50 worked out at 251 µM.

`COc1ccc2c(c1)[n+](=O)c(C(=O)C/C(=N/NC(=O)c1ccccc1O)C(=O)Nc1ccc(Cl)c(C(F)(F)F)c1)c(C)n2[O-]`: the EC50 was above 1.2 µM and the IC50 is above 1.2 µM.

For `C/C(=N\N=C(N)N)c1ccccc1`, the outcome was inactive.

For the molecule `CCCCCCNC(=S)N/N=C(\C)c1ccccn1`, the EC50 is above 0.2 µM and the IC50 was 0.0324 µM.

Turning to `CCCN(CCC)C(=O)c1c([N+](=O)[O-])cc(C(F)(F)F)cc1[N+](=O)[O-]`, the outcome was inactive.

For `NS(=O)(=O)c1cc2c(cc1Cl)NC(C(=O)c1cc(=O)c3ccc(O)cc3o1)=NS2(=O)=O`, the EC50 was above 513 µM and the IC50 was above 513 µM.

For the molecule `CC(=O)Oc1ccc2c(c1)nnn2C(C)=O`, the EC50 is above 200 µM and the IC50 is above 200 µM.

Regarding `CC1NC(=O)C(C(C)C)NC(=O)C2=CN(Cc3ccccc3)C=CC2NC(=O)C(C)NC(=O)C(C(C)C)NC(=O)C2=CN(Cc3ccccc3)C=CC2NC1=O` (stereo not given) (cyclo([X1]VA[X1]VA); configuration not given here), the EC50 is above 23.4 µM and the IC50 is above 23.4 µM.

Take `Cc1cc(N(CCOS(C)(=O)=O)CCOS(C)(=O)=O)ccc1C=Nc1ccc(-c2nc(Cc3ccccc3)sc2C)cc1`: the EC50 was above 200 µM and the IC50 amounted to 0.427 µM.

`OCC1OC2NC(=S)OC2C1O` (stereo not given): the EC50 is above 200 µM and the IC50 is above 200 µM.

`CN(C)C(=S)SSC(=S)SSC(=S)N(C)C`: the EC50 is above 2 µM and the IC50 turned out to be 0.646 µM.

On to `COC1CC(CC(C)=O)CN(C#N)CCc2c1[nH]c1ccccc21` (stereo not given), for which the EC50 is above 132 µM and the IC50 was above 132 µM.

As for `O=c1[nH]c2cc([N+](=O)[O-])ccc2nc1/C(=N/Nc1ccccc1)C(O)c1ccco1` (stereo not given), the EC50 is above 234 µM and the IC50 amounted to 89.1 µM.

With `Nc1nc(Cl)cc(N=Nc2ccccc2)n1`, the EC50 is above 200 µM and the IC50 was determined as 11.5 µM.

Turning to `COc1cc(C2C3=C(COC3=O)Oc3cc4c(cc32)OCO4)cc(OC)c1O` (stereo not given), the EC50 is above 2 µM and the IC50 was determined as 0.0562 µM.

With `[N-]=[N+]=Nc1ncnc2c1sc(=S)n2-c1ccccc1`, the EC50 is above 91.2 µM and the IC50 was above 91.2 µM.

For the molecule `Cc1ccc(NC(=O)CC2Sc3ccccc3NC2=O)cc1C` (stereo not given), the EC50 was above 6.17 µM and the IC50 was above 6.17 µM.

`CCCC/C=C(/CCCBr)[Si](C)(C)C`: the EC50 was above 339 µM and the half-inhibitory concentration (IC50) was above 339 µM.

For the molecule `CCOC(=O)C1=NN(c2ccccc2)C(=O)/C1=C\N1C(=O)/C(=C/c2cccc(O)c2)SC1=S`, the EC50 is above 200 µM and the IC50 came out at 38.9 µM.

The values are drawn from PubChem BioAssay AID179 (DTP/NCI, 2004).
